Six compounds from US20090143400A1, “PURINE DERIVATIVES HAVING IMMUNO-MODULATING PROPERTIES” (priority 2005, published 2009) can be followed below.

The test system of one data set is rat spleen cells. In kind it is cell-based.
The nature of the next data set: Solubility testing. The conditions noted are these: aqueous buffer, thermodynamic from solid; 0.1 M phosphate buffer, shaken overnight at 20° C., HPLC/UV; Examples of the invention. Type of data set: physicochemical. As for the experimental part:
Saturated solutions for determining the solubility were prepared by placing about 0.3-3.0 ml of 0.1 M phosphare buffer in glass screw-top sample tubes along with some of the test compound. The tubes were then shaken overnight at constant temperature (20° C.). After shaking, undissolved material should be present in the solution, and more test compound should be added and shaking continued if this is not the case. The samples were then transferred to a centrifuge tube and centrifuged using a Heraeus Biofuge Fresco centrifuge at 13000 rpm for 30 minutes. The supernatant was then removed, placed in a new centrifuge tube and centrifuged again for 30 minutes at 13000 rpm. The undissolved material formed a pellet at the bottom of the tube and the liquid above the pellet was removed and was ready for assaying. The solution was then analysed using HPLC with UV quantification. A standard was also prepared by accurately weighing a sample of the test compound and dissolving it in a suitable volume of a solvent that will dissolve it completely (typically, DMSO, ethanol or methanol). This sample was then analysed by HPLC/UV.
The solubility was calculated from the observed peak areas in the HPLC/UV chromatograms along with corrections for any dilutions of the sample and differences in injection volumes. The following equation was used: […]

The target in the next data set is T1, human TLR7 (Homo sapiens, UniProt Q9NYK1).
T1 construct: expressed in transfected cells; host or cells: HEK293 cell line stably expressing the pNiFty2-SEAP reporter plasmid
T1 sequence (Q9NYK1 27-1049): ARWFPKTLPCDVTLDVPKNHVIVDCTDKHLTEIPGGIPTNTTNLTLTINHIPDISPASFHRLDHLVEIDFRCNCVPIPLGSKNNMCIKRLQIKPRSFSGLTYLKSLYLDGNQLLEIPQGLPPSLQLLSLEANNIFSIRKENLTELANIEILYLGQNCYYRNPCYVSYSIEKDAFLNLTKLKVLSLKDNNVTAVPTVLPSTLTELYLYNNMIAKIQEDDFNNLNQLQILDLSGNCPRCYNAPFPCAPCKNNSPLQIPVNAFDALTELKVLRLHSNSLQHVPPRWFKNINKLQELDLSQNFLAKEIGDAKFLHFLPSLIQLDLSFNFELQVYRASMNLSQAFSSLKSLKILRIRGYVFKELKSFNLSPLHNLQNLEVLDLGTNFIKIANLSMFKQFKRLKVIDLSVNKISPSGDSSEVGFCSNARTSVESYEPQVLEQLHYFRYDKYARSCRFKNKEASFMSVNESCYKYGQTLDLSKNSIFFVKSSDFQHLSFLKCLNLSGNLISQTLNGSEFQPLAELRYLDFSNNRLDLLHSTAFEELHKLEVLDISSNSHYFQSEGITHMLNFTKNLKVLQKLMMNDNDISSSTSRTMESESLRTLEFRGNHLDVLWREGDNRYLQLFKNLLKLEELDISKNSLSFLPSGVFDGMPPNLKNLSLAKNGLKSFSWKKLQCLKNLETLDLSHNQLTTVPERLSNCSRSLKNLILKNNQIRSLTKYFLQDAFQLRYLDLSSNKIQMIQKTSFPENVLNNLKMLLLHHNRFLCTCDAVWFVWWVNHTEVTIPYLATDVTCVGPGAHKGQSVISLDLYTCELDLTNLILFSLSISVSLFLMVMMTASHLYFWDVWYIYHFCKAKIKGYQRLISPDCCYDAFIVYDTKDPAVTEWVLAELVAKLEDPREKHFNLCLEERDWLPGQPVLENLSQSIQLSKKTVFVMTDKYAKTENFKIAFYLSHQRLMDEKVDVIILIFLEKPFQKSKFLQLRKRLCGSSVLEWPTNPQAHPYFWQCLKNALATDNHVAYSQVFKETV
In words: Human TLR7 assay (HEK293 SEAP reporter). The conditions noted are these: minimal effective concentration to induce SEAP release; HEK293 with recombinant human TLR7, overnight incubation at 37° C., 0.1% DMSO. Type of data set: cell-based. The text has this: Recombinant human TLR7 was stably expressed in a HEK293 cell line already stably expressing the pNiFty2-SEAP reporter plasmid; integration of the reporter gene was maintained by selection with the antibiotic zeocin. The most common variant sequence of human TLR7 (represented by the EMBL sequence AF240467) was cloned into the mammalian cell expression vector pUNO and transfected into this reporter cell-line. Transfectants with stable expression were selected using the antibiotic blasticidin. In this reporter cell-line, expression of secreted alkaline phosphatase (SEAP) is controlled by an NFkB/ELAM-1 composite promoter comprising five NFkB sites combined with the proximal ELAM-1 promoter. TLR signaling leads to the translocation of NFkB and activation of the promoter results in expression of the SEAP gene. TLR7-specific activation was assessed by determining the level of SEAP produced following overnight incubation of the cells at 37° C. with the standard compound in the presence of 0.1% (v/v) dimethylsulfoxide (DMSO). Concentration dependent induction of SEAP production by compounds was expressed as the minimal effective concentration of compound to induce SEAP release (pMEC).

As a reminder, the solubility is how much of the substance goes into solution per volume. A low value points to little dissolved substance.

Structures are written as SMILES. Values after ≈ are worked out from the molar mass of the structure shown.

For the compound `CCCCOc1nc(N)c2[nH]c(=O)n(CCCN(CCCN(C)C)Cc3cccc(CC(=O)OC)c3)c2n1` [Example 1, Methyl [3-({[3-(6-amino-2-butoxy-8-oxo-7,8-dihydro-9H-purin-9-yl)propyl][3-(dimethylamino)propyl]amino}methyl)phenyl]acetate], the “Log MEC” value in the data set with rat spleen cells is reported as 9.5. The solubility in “Solubility testing” is 980 µg/mL (≈ 1860 µM).

Consider `CCCCOc1nc(N)c2[nH]c(=O)n(CCCN(CCCN3CCCC3)Cc3cccc(CC(=O)OC)c3)c2n1` [Example 2, Methyl (3-{[[3-(6-amino-2-butoxy-8-oxo-7,8-dihydro-9H-purin-9-yl)propyl](3-pyrrolidin-1-ylpropyl)amino]methyl}phenyl)acetate], for which the “Log MEC” value in the data set on rat spleen cells is 9.5. In addition, the pMEC at human TLR7 was 7.4. Besides, the solubility in “Solubility testing” was 1940 µg/mL (≈ 3500 µM).

In the case of `CCCCOc1nc(N)c2[nH]c(=O)n(CCCN(CCCN3CCN(C)CC3)Cc3cccc(CC(=O)OC)c3)c2n1` [Example 3, Methyl [3-({[3-(6-amino-2-butoxy-8-oxo-7,8-dihydro-9H-purin-9-yl)propyl][3-(4-methylpiperazin-1-yl)propyl]amino}methyl)phenyl]acetate], the “Log MEC” value in the data set on rat spleen cells is reported as 9.5. The pMEC at human TLR7 was 7.7. The solubility in “Solubility testing” worked out at 850 µg/mL (≈ 1460 µM).

On to `CCCCOc1nc(N)c2[nH]c(=O)n(CCCN(CCN(C)C)Cc3cccc(CC(=O)OC)c3)c2n1` [Example 4, Methyl [3-({[3-(6-amino-2-butoxy-8-oxo-7,8-dihydro-9H-purin-9-yl)propyl][2-(dimethylamino)ethyl]amino}methyl)phenyl]acetate], for which the “Log MEC” value with rat spleen cells came to 9.5. This compound also came in with a solubility in “Solubility testing” of 830 µg/mL (≈ 1620 µM).

For `CCCCOc1nc(N)c2[nH]c(=O)n(CCCN(CCCNC)Cc3cccc(CC(=O)OC)c3)c2n1` [Example 5, Methyl [3-({[3-(6-amino-2-butoxy-8-oxo-7,8-dihydro-9H-purin-9-yl)propyl][3-(methylamino)propyl]amino}methyl)phenyl]acetate], in the data set with rat spleen cells, the “Log MEC” value turned out to be 9.5. Further, the pMEC at human TLR7 amounted to 7.2. Besides, in “Solubility testing”, the solubility is 1820 µg/mL (≈ 3540 µM).

As for `CCCCOc1nc(N)c2[nH]c(=O)n(CCCCN(CCCN3CCN(C)CC3)Cc3cccc(CC(=O)OC)c3)c2n1` [Example 6, Methyl [3-({[4-(6-amino-2-butoxy-8-oxo-7,8-dihydro-9H-purin-9-yl)butyl][3-(4-methylpiperazin-1-yl)propyl]amino}methyl)phenyl]acetate], the “Log MEC” value in the data set on rat spleen cells stood at 9.0. In the data set “Solubility testing”, the solubility was 1210 µg/mL (≈ 2030 µM).
